Laboratory results as given in publication PMC9775322, “An Integrated Analysis of Mechanistic Insights into Biomolecular Interactions and Molecular Dynamics of Bio-Inspired Cu(II) and Zn(II) Complexes towards DNA/BSA/SARS-CoV-2 3CL^pro by Molecular Docking-Based Virtual Screening and FRET Detection” (Biomolecules, 2022).
Values joined by “and” are separate entries in the source; they are usually repeats but may differ in a detail not shown here. Equal entries are not always repeated.

Experiments:
[1] = test system: HepG2 Liver cancer cell line; test: MTT cell viability assay; assay type: cell-based; settings: 72 h exposure, at least three independent experiments
[2] = test system: NHDF Normal human dermal fibroblasts cell line; test: MTT cell viability assay; assay type: cell-based; settings: 72 h exposure
CT-DNA = test: DNA binding affinity by viscometric (hydrodynamic) titration; parameters: species or system calf; settings: for Relative Specific Viscosity (η/η0)^1/3: DNA 100 µM; for Slope of (η/η0)^1/3 vs [Compound]/[DNA]: linear plot, R 0.2–1.0
Experimental: The hydrodynamic titrations were carried out for all substances along with ethidium bromide (control) at 20, 40, 60, 80, 100 µM concentrations. In the Ostwald viscometer, these substances were also separately treated with the deoxyribonucleic acid solution (100 µM).
2.2.4. Viscometry-based titration for investigation of DNA binding
The Viscometry-based titration measurements were further supportive and delivered data about the binding modes between test compound and DNA base pairs. Nevertheless, it does not deliver definite confirmation for the exact mode of interactions. The experiment performed for all test compounds and ethidium bromide (control) at various concentrations 20, 40, 60, 80, 100 µM and each compound mixed with the CT-DNA solution (100 µM) in the Ostwald viscometer. With an accuracy of 0.01 seconds, a digital stopwatch was used to measure the average flow time. Due to the enhancement of the DNA's overall contour length during the separation of base pairs at intercalation sites, the classical intercalative mode […]
Generally, the compounds may result in less positive/negative or no viscosity change if they bind with DNA base pairs via […]
major or minor grooves [ 26]. […]
compounds via intercalation.

[3] = test system: A549 Human lung cancer cell line; test: MTT cell viability assay; assay type: cell-based; settings: 72 h exposure, at least three independent experiments
[4] = test system: MCF-7 Breast cancer cell line; test: MTT cell viability assay; assay type: cell-based; settings: 72 h exposure, at least three independent experiments
[5] = DPPH radical scavenging assay; assay type: biochemical; settings: 517 nm
[6] = test system: Chromo bacterium violaceum; test: Agar disc diffusion antibacterial test; settings: for diameter of clear zone inhibition / Inhibition %: C, (-) Chromo bacterium violaceum; for diameter of clear zone inhibition: 20 µL of 100 µM on 6 mm disc, Control (DMSO) = 6 mm; for Inhibition %: (T–C)/T × 100

SMILES	IC50 [1] [µM]	IC50 [2] [µM]	Relative Specific Viscosity (η/η0)^1/3 (CT-DNA; R = [Complex]/[DNA] = 0.2)	Relative Specific Viscosity (η/η0)^1/3 (CT-DNA; R = [Complex]/[DNA] = 0.4)	Relative Specific Viscosity (η/η0)^1/3 (CT-DNA; R = [Complex]/[DNA] = 0.6)	Relative Specific Viscosity (η/η0)^1/3 (CT-DNA; R = [Complex]/[DNA] = 0.8)	Relative Specific Viscosity (η/η0)^1/3 (CT-DNA; R = [Complex]/[DNA] = 1.0)	Slope of (η/η0)^1/3 vs [Compound]/[DNA] (CT-DNA)	IC50 [3] [µM]	IC50 [4] [µM]	% Inhibition, DPPH ([5]; 40 µM) [%]	% Inhibition, DPPH ([5]; 80 µM) [%]	% Inhibition, DPPH ([5]; 120 µM) [%]	% Inhibition, DPPH ([5]; 160 µM) [%]	% Inhibition, DPPH ([5]; 200 µM) [%]	% Inhibition, DPPH ([5]; 240 µM) [%]	IC50 [5] [µM]	diameter of clear zone inhibition [6] [mm]	Inhibition % [6] [%]	zone of inhibition at 100 µM ([6]; read-out: diameter of clear zone inhibition) [mm]
[Cu+2].[O-]c1ccccc1N=Cc1ccc(N2CCOCC2)cc1.[O-]c1ccccc1N=Cc1ccc(N2CCOCC2)cc1.c1cnc2c(c1)ccc1cccnc12 [(1b), [Cu^II(L)2(phen)]]	30.9 ± 1.2	72.6 ± 2.9	0.82	1.10	1.25	1.45	1.71	1.0805	29.7 ± 1.2	31.7 ± 1.3	18.11	30.88	36.82	52.42	58.65	70.12	160	11	45	
[O-]c1ccccc1N=Cc1ccc(N2CCOCC2)cc1.[O-]c1ccccc1N=Cc1ccc(N2CCOCC2)cc1.[Zn+2].c1cnc2c(c1)ccc1cccnc12 [(2b), [Zn^II(L)2(phen)]]	33.4 ± 1.4	74.5 ± 3	0.80	0.91	1.16	1.21	1.53	0.840	32.1 ± 1.3	32.5 ± 1.3	12.82	24.88	30.89	40.27	50.12	60.66	200	11	45	
Oc1ccccc1N=Cc1ccc(N2CCOCC2)cc1 [(HL), 2-(4-morpholinobenzylideneamino)phenol]			0.61	0.67	0.75	0.85	1.01	0.462 and 0.4616			09.45	15.21	26.36	34.56	39.41	52.45			45	11
